The values below are quoted from earlier work in patent US20190350224A1, “METHOD FOR IMPROVING MUSCLE FORCE OR PHYSICAL FUNCTION” (University of Washington, priority 2018, published 2019).

For this data set the following is noted: against reactive oxygen species.

For `CC1=C(/C=C/C(C)=C/C=C/C(C)=C/C=C/C=C(C)/C=C/C=C(C)/C=C/C2=C(C)C(=O)C(O)CC2(C)C)C(C)(C)CC(O)C1=O` (stereo not drawn) [astaxanthin, 3,3′-dihydroxy-β,β-carotene-4,4′-dione], the “antioxidant action relative to n-carotene” value is given as “about 40 times”.
